How the values were obtained:
[1] = Evaporative loss of active during extrusion-based masterbatch preparation; assay type: physicochemical; conditions: 10% bifenthrin melt mixed into EVA-LLDPE-silicate carrier resin, masterbatch pellets
Experimental: A masterbatch polymeric carrier resin was prepared by melt mixing bifenthrin (10% wt. percentage), low melting EVA polymer and either a high melt index linear low density polyethylene (LLDPE) or low density polyethylene (LDE).
In this way, 10% of the active bifenthrin was incorporated into an EVA-LLDPE-silicate carrier resin and masterbatch pellets produced.

[2] = Thermogravimetric study of the stability of bifenthrin (thermal balance); assay type: physicochemical; conditions: thermogravimetric study using a thermal balance; threshold temperature of decomposition
Experimental: In order to determine whether extrusion-based masterbatch preparation was possible without excessive thermal decomposition or volatilization of bifenthrin, a thermogravimetric study was performed using a thermal balance.

## Cc1c(COC(=O)[C@@H]2[C@H](/C=C(\Cl)C(F)(F)F)C2(C)C)cccc1-c1ccccc1 (racemic) [bifenthrin]
[1]
  evaporative losses of the active: no measurable evaporative losses
[2]
  temperature at which degradation of the active occurs: about 180 °C
